± gives the standard deviation of the averaged measurements.
Test system: HepaRG
Experiment: LDH release cytotoxicity, % of total lysis control; higher = more cytotoxic
Settings: 48 h
Outline: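 On collagen I-coated 96-well plates, single-lot HepaRG cells were exposed for 48 h, in duplicate, to eight-point half-log series of test chemicals beginning at 100 µM. The exposure medium was serum-free induction medium with 0.5% DMSO, and total lysis wells got 0.1% Triton X. Resorufin fluorescence from the CytoTox-ONE reaction, read on a Tecan Safire, reported LDH in 50 µL of spent medium. Percent cytotoxicity came from normalization to on-plate vehicle and total lysis controls, averaged over the duplicates.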

Compound	LDH release cytotoxicity (0.03162 µM) [%]	LDH release cytotoxicity (0.1 µM) [%]	LDH release cytotoxicity (0.3162278 µM) [%]	LDH release cytotoxicity (1 µM) [%]	LDH release cytotoxicity (3.16228 µM) [%]	LDH release cytotoxicity (10 µM) [%]	LDH release cytotoxicity (31.6228 µM) [%]	LDH release cytotoxicity (100 µM) [%]	also measured
COc1ccc2c(c1)c(CC(=O)O)c(C)n2C(=O)c1ccc(Cl)cc1 [1-(p-Chlorobenzoyl)-5-methoxy-2-methyl-Indole-3-acetic acid]	-0.418 ± 0.2	-0.408 ± 0.23	-0.399 ± 0.2	0.493 ± 0.042	0.818 ± 0.36	0.284 ± 0.81	0.637 ± 0.53	1.2 ± 0.22	
c1ccc(C[n+]2cccc3ccccc32)cc1 [1-Benzylquinolinium chloride]									LDH release cytotoxicity (0.0327296 µM): -1.88 ± 0.03%; LDH release cytotoxicity (0.1035 µM): -1.6 ± 0.26%; LDH release cytotoxicity (0.327296 µM): -1.47 ± 1.5%; LDH release cytotoxicity (1.035 µM): -1.94 ± 0.25%; LDH release cytotoxicity (3.27296 µM): -1.92 ± 0.61%; LDH release cytotoxicity (10.35 µM): -0.779 ± 0.81%; LDH release cytotoxicity (32.729574 µM): 0.264 ± 0.71%; LDH release cytotoxicity (103.5 µM): -1.31 ± 1.1%
O=[N+]([O-])c1ccc(Cl)cc1 [1-Chloro-4-nitrobenzene]	-0.012 ± 0.35	-0.728 ± 0.66	0.037 ± 0.14	-0.523 ± 0.12	-0.0534 ± 0.38	0.685 ± 0.47	5.08 ± 0.88	18 ± 1.8	
CCCCCCCCCCO [1-Decanol]	-1.47 ± 0.66	-2.45 ± 1	-1.67 ± 0.81	-2.76 ± 0.3	-1.79 ± 1	-1.21 ± 0.22	-0.773 ± 0.89	0.757 ± 0.16	
CCCCCCCCCCCCO [1-Dodecanol]		-0.16 ± 8		-2.62 ± 3.8	-2.27 ± 3.2	-0.892 ± 4.2	-1.67 ± 1	-0.399 ± 1.2	LDH release cytotoxicity (0.031623 µM): -3.98 ± 0.71%; LDH release cytotoxicity (0.316228 µM): -2.69 ± 2.2%
CCCCCCCCCCCCN1CCCC1=O [1-Dodecyl-2-pyrrolidinone]		-0.917 ± 1.2		-2.75 ± 1	-3.37 ± 2	-2.86 ± 0.27	-2.4 ± 0.15	0.295 ± 0.75	LDH release cytotoxicity (0.031623 µM): -0.38 ± 1.3%; LDH release cytotoxicity (0.316228 µM): -3 ± 1.8%
CCCCCCCCCCCCCCCCO [1-Hexadecanol]									LDH release cytotoxicity (0.0320971 µM): -2.16 ± 0.6%; LDH release cytotoxicity (0.1015 µM): -2.95 ± 0.21%; LDH release cytotoxicity (0.320971 µM): -2.48 ± 0.093%; LDH release cytotoxicity (1.015 µM): -3.51 ± 0.26%; LDH release cytotoxicity (3.2097118 µM): -3.1 ± 0.27%; LDH release cytotoxicity (10.15 µM): -2.1 ± 0.81%; LDH release cytotoxicity (32.0971 µM): -1.56 ± 0.39%; LDH release cytotoxicity (101.5 µM): 3.36 ± 0.21%
Oc1ccc2ccc3cccc4ccc1c2c34 [1-Hydroxypyrene]	-0.176 ± 0.49	-0.855 ± 0.05	-1.52 ± 0.41	-1.23 ± 0.16	-1.18 ± 0.77	-0.495 ± 0.78	-0.838 ± 0.25	0.111 ± 0.6	
COCC(C)O (stereo not given) [1-Methoxy-2-propanol]	-0.68 ± 0.076	-1.18 ± 1.1	-1.53 ± 0.67	-1.81 ± 0.6	-1.09 ± 0.06	-0.197 ± 0.52	-0.477 ± 0.073	0.469 ± 0.036	
Cn1cc(-c2ccccc2)c(=O)c(-c2cccc(C(F)(F)F)c2)c1 [1-Methyl-3-phenyl-5-(3-(trifluoromethyl)phenyl)-4-pyridone]									LDH release cytotoxicity (0.02893 µM): -1.78 ± 0.74%; LDH release cytotoxicity (0.0915 µM): -1.31 ± 0.83%; LDH release cytotoxicity (0.289348 µM): -1.94 ± 0.24%; LDH release cytotoxicity (0.915 µM): -2.56 ± 0.53%; LDH release cytotoxicity (2.89348 µM): -2.08 ± 0.3%; LDH release cytotoxicity (9.15 µM): -2.29 ± 0.32%; LDH release cytotoxicity (28.9348 µM): -1.81 ± 0.048%; LDH release cytotoxicity (91.5 µM): 20.3 ± 0.7%
Cc1cccc2ccccc12 [1-Methylnaphthalene]		-2.7 ± 0.83		-3.13 ± 0.52	-2.9 ± 0.43	-2.97 ± 0.64	-1.66 ± 0.63	13.3 ± 7.7	LDH release cytotoxicity (0.031623 µM): -2.15 ± 0.06%; LDH release cytotoxicity (0.316228 µM): -2.77 ± 1.2%
CCCCCCCCO [1-Octanol]	-0.769 ± 1	-1.52 ± 0.36	-0.614 ± 0.069	-1.76 ± 0.5	-2.15 ± 1.1	-1.49 ± 0.68	1.06 ± 0.25	2.86 ± 2.5	
CCCCCCCCCCCCCCCO [1-Pentadecanol]	0.0106 ± 0.14	-0.465 ± 0.06	0.131 ± 0.74	-0.574 ± 0.11	0.207 ± 0.55	0.233 ± 0.26	0.338 ± 0.26	2.58 ± 0.24	
CCCCCCCCCCCCCCO [1-Tetradecanol]	-1.1 ± 0.46	-2.17 ± 0.9	-0.313 ± 1	-2.29 ± 0.65	-2.1 ± 0.054	-1.49 ± 0.62	-1.69 ± 0.017	6.5 ± 2.2	
C=CCCCCCCCCCCCC [1-Tetradecene]		-3.45 ± 0.87		-4.65 ± 0.72	-3.81 ± 0.5	-4.29 ± 0.17	-4.23 ± 0.41	-4.05 ± 0.7	LDH release cytotoxicity (0.031623 µM): -1.3 ± 1.6%; LDH release cytotoxicity (0.316228 µM): -3.94 ± 1.4%
CCCCCCCCCCCCCO [1-Tridecanol]	-1.51 ± 0.42	-0.843 ± 0.39	-0.758 ± 0.15	-0.914 ± 0.16	-0.263 ± 1	0.564 ± 1.8	0.347 ± 1.4	3.78 ± 2.1	
CCCCCCCCCCCO [1-Undecanol]									LDH release cytotoxicity (0.01581 µM): -2.55 ± 0.72%; LDH release cytotoxicity (0.05 µM): -3.97 ± 0.19%; LDH release cytotoxicity (0.1581139 µM): -3.8 ± 1.3%; LDH release cytotoxicity (0.5 µM): -4.64 ± 0.28%; LDH release cytotoxicity (1.5811388 µM): -2.84 ± 0.45%; LDH release cytotoxicity (5 µM): -3.15 ± 0.031%; LDH release cytotoxicity (15.8114 µM): -2.96 ± 1.5%; LDH release cytotoxicity (50 µM): 4.08 ± 2.9%
CCO[Si](CCCNC(N)=O)(OCC)OCC [1-[3-(Triethoxysilyl)propyl]urea]	-1.05 ± 0.013	-2.25 ± 0.44	-1.8 ± 0.35	-2.22 ± 0.071	-2.28 ± 0.25	-1.64 ± 0.34	-1.55 ± 0.96	0.263 ± 0.38	
FC(F)(F)C(F)(F)C(F)(F)C(F)(F)C(F)(F)C(F)(F)CCI [1H,1H,2H,2H-Perfluorooctyl iodide]	-2.1 ± 0.36	-1.68 ± 0.34	-1.96 ± 0.36	-2.44 ± 0.81	-1.64 ± 0.62	-1.16 ± 0.9	-0.32 ± 0.46	1 ± 0.87	
c1nc[nH]n1 [1H-1,2,4-Triazole]	0.679 ± 0.53	0.298 ± 0.72	-1.06 ± 0.17	-0.618 ± 0.53	0.566 ± 1.4	0.541 ± 1.2	1.08 ± 0.1	2.04 ± 1.2	
